{"source": "patent US8795222B2", "about": "“Device and method for treatment of surface infections with nitric oxide” (Pulmonox Technologies Corp., priority 2000, dated 2014)", "key": {"Group B Streptococci": {"tested_on": "Group B Streptococci", "assay": "Bacteriocidal time study, 200 ppm gNO, saline suspension", "format": "cell-based, Group B Streptococcus", "procedure": "(§1) Following the dose and time ranging studies, a series of experiments were performed to determine the time required to effectively induce a bacteriocidal effect with 200 parts per million of gNO, a concentration just above the dose used in the dose-ranging study, on a representative collection of drug resistant gram-positive and gram-negative strains of bacteria associated with clinical infection. A successful bacteriocidal effect was defined as a decrease in bacteria greater than 3 log10 cfu/ml. Further, C. albicans, Methicillin Resistant S. aureus (MRSA), a particularly resistant strain of P. aeruginosa from a cystic fibrosis patient, Group B Streptococcus, and M. smegmatis were also included to see if yeast, multi-drug resistant strains of bacteria, and actinomycetes have a similar response. The drug-resistant bacteria represent a variety of pathogens that contribute to both respiratory and wound infections.\n(§2) For these experiments, saline was selected as a suspension media because it would not mask the direct effect of gNO as a bacteriocidal, whereas fully supplemented growth medium might introduce external variables (e.g., buffer or react with gNO). Other media might also provide metabolites and replenish nutrients that produce enzymes that protect bacteria from oxidative and nitrosative damage, thereby masking the effect of gNO. […] In saline, the colonies were static but remained viable. This is similar to the approach of Webert and Jean's use of animal models. Webert K E, et al (2000), Effects of inhaled nitric oxide in a rat model of Pseudomonas aeruginosa pneumonia, Crit. Care Med, 28(7):2397-2405 and Jean D, et al., (2002) Beneficial effects of nitric oxide inhalation on pulmonary bacterial clearance, Critical Care Medicine. 30(2):442-7.\n(§3) The latent period was then followed by an abrupt death of all cells. Gram negative and gram positive bacteria, antibiotic resistant bacterial strains, yeast and mycobacteria were all susceptible to 200 ppm gNO. Of importance, is the observation that the two drug resistant bacteria strains were also susceptible."}, "S. aureus": {"tested_on": "S. aureus", "assay": "gNO dose study, colony growth on agar plates", "format": "cell-based", "procedure": "FIG. 6 depicts a S. aureus dosage curve for exposure to gaseous NO (gNO) with bacteria grown on solid media. Relative percentages of growth of S. aureus colony forming units (cfu) at 50, 80, 120 and 160 parts per million (ppm) of nitric oxide compared with growth of S. aureus cfu in medical air (100%) are shown.\nTo study the effects of gaseous nitric oxide on potential pathogens, a custom gas exposure incubator was designed and validated for temperature, humidity, and gas concentrations, providing an environment that matches that of a microbiologic incubator, while enabling controlled exposure of precise concentrations of the gas. […] The gNO chamber allowed control and adjustment of following factors in all in vitro studies: gNO dose, total air flow, NO2 levels, O2 levels, CO2 levels, temperature, and humidity. For the initial pilot studies, two strains of bacterial pathogen were selected based on two proposed clinical applications of gNO for respiratory infections and topical application. P. aeruginosa is associated primarily with pulmonary disease, but may also be associated with skin infection such as in severe burns. S. aureus is associated with surface wound infections. Both of these micro-organisms were chosen for the pilot study.\nThe first step in the process of evaluating the direct effect of gNO on bacteria was to design a simple study to determine what dose, if any, would be an approximate lethal concentration level for microbes. Once an optimal dose was estimated, then a timing study would be conducted. For these initial studies, highly dense inoculums of P. aeruginosa and S. aureus suspensions (10^8 cfu/ml) were plated onto agar plates. These plates were then exposed to various concentrations of gNO in the exposure device in order to evaluate the effect on colony growth."}, "human endothelial cells": {"tested_on": "human endothelial cells", "assay": "Tube formation in matrigel", "format": "cell-based", "conditions": "200 ppm NO versus air, 8 hours or 24 hours", "procedure": "Left panels at 8 hours of exposure. Right panels at 24 hours of exposure."}, "E. coli": {"tested_on": "E. coli", "assay": "Bacteriocidal time study, 200 ppm gNO, saline suspension", "format": "cell-based", "procedure": "as §1, §2, §3"}, "Klebsiella sp. #1": {"tested_on": "Klebsiella sp. #1", "assay": "Bacteriocidal time study, 200 ppm gNO, saline suspension", "format": "cell-based", "procedure": "as §1, §2, §3"}, "S. aureus (Clinical)": {"tested_on": "S. aureus (Clinical)", "assay": "Bacteriocidal time study, 200 ppm gNO, saline suspension", "format": "cell-based", "procedure": "as §1, §2, §3"}, "Acinetobacter sp.": {"tested_on": "Acinetobacter sp.", "assay": "Bacteriocidal time study, 200 ppm gNO, saline suspension", "format": "cell-based", "procedure": "as §1, §2, §3"}, "Klebsiella sp. #3": {"tested_on": "Klebsiella sp. #3", "assay": "Bacteriocidal time study, 200 ppm gNO, saline suspension", "format": "cell-based", "procedure": "as §1, §2, §3"}, "P. aeruginosa (ATCC)": {"tested_on": "P. aeruginosa (ATCC)", "assay": "Bacteriocidal time study, 200 ppm gNO, saline suspension", "format": "cell-based", "procedure": "as §1, §2, §3"}, "S. maltophilia": {"tested_on": "S. maltophilia", "assay": "Bacteriocidal time study, 200 ppm gNO, saline suspension", "format": "cell-based", "procedure": "as §1, §2, §3"}, "Enterobacter sp.": {"tested_on": "Enterobacter sp.", "assay": "Bacteriocidal time study, 200 ppm gNO, saline suspension", "format": "cell-based", "procedure": "as §1, §2, §3"}, "S. aureus (ATCC)": {"tested_on": "S. aureus (ATCC)", "assay": "Bacteriocidal time study, 200 ppm gNO, saline suspension", "format": "cell-based", "procedure": "as §1, §2, §3"}, "Serracia sp.": {"tested_on": "Serracia sp.", "assay": "Bacteriocidal time study, 200 ppm gNO, saline suspension", "format": "cell-based", "procedure": "as §1, §2, §3"}, "Kiebsiella sp. #2": {"tested_on": "Kiebsiella sp. #2", "assay": "Bacteriocidal time study, 200 ppm gNO, saline suspension", "format": "cell-based", "procedure": "as §1, §2, §3"}}}
{"smiles": "[N]=O", "note": "[gNO, nitric oxide]", "values": [{"measurement": "LD100", "setting": "Group B Streptococci", "result": 2, "unit": "h"}, {"measurement": "Latent Period*", "setting": "Group B Streptococci", "result": 1, "unit": "h"}, {"measurement": "−2.5 Log10", "setting": "Group B Streptococci; time to −2.5 log10 cfu/ml", "result": 1.5, "unit": "hrs"}, {"measurement": "colony size and number after transfer to a conventional incubator", "setting": "S. aureus; 24 hours after gNO exposure, controls overgrew", "result": "remained the same in size and number"}, {"measurement": "time required to achieve the >90% reduction of colony formation", "setting": "S. aureus; gNO greater than 120 ppm, agar plates", "result": "8 to 12", "unit": "h"}, {"measurement": "reduction of colony formation", "setting": "S. aureus; gNO greater than 120 ppm, agar plates, compared with medical air", "result": "greater than 90%"}, {"measurement": "survival", "setting": "S. aureus; increasing gNO to 120 ppm, agar plates", "result": "5-10%"}, {"measurement": "tube formation", "setting": "human endothelial cells", "result": "no significant difference"}, {"measurement": "LD100", "setting": "E. coli", "result": 5, "unit": "h"}, {"measurement": "Latent Period*", "setting": "E. coli", "result": 3, "unit": "h"}, {"measurement": "−2.5 Log10", "setting": "E. coli; time to −2.5 log10 cfu/ml", "result": 4.2, "unit": "hrs"}, {"measurement": "LD100", "setting": "Klebsiella sp. #1", "result": 6, "unit": "h"}, {"measurement": "Latent Period*", "setting": "Klebsiella sp. #1", "result": 3, "unit": "h"}, {"measurement": "−2.5 Log10", "setting": "Klebsiella sp. #1; time to −2.5 log10 cfu/ml", "result": 3.5, "unit": "hrs"}, {"measurement": "LD100", "setting": "S. aureus (Clinical)", "result": 4, "unit": "h"}, {"measurement": "Latent Period*", "setting": "S. aureus (Clinical)", "result": 3, "unit": "h"}, {"measurement": "−2.5 Log10", "setting": "S. aureus (Clinical); time to −2.5 log10 cfu/ml", "result": 3.7, "unit": "hrs"}, {"measurement": "LD100", "setting": "Acinetobacter sp.", "result": 6, "unit": "h"}, {"measurement": "Latent Period*", "setting": "Acinetobacter sp.", "result": 4, "unit": "h"}, {"measurement": "−2.5 Log10", "setting": "Acinetobacter sp.; time to −2.5 log10 cfu/ml", "result": 5, "unit": "hrs"}, {"measurement": "LD100", "setting": "Klebsiella sp. #3", "result": 6, "unit": "h"}, {"measurement": "Latent Period*", "setting": "Klebsiella sp. #3", "result": 3, "unit": "h"}, {"measurement": "−2.5 Log10", "setting": "Klebsiella sp. #3; time to −2.5 log10 cfu/ml", "result": 5.1, "unit": "hrs"}, {"measurement": "LD100", "setting": "P. aeruginosa (ATCC)", "result": 3, "unit": "h"}, {"measurement": "Latent Period*", "setting": "P. aeruginosa (ATCC)", "result": 1, "unit": "h"}, {"measurement": "−2.5 Log10", "setting": "P. aeruginosa (ATCC); time to −2.5 log10 cfu/ml", "result": 2.1, "unit": "hrs"}, {"measurement": "LD100", "setting": "S. maltophilia", "result": 4, "unit": "h"}, {"measurement": "Latent Period*", "setting": "S. maltophilia", "result": 2, "unit": "h"}, {"measurement": "−2.5 Log10", "setting": "S. maltophilia; time to −2.5 log10 cfu/ml", "result": 2.8, "unit": "hrs"}, {"measurement": "LD100", "setting": "Enterobacter sp.", "result": 6, "unit": "h"}, {"measurement": "Latent Period*", "setting": "Enterobacter sp.", "result": 4, "unit": "h"}, {"measurement": "−2.5 Log10", "setting": "Enterobacter sp.; time to −2.5 log10 cfu/ml", "result": 5.3, "unit": "hrs"}, {"measurement": "LD100", "setting": "S. aureus (ATCC)", "result": 4, "unit": "h"}, {"measurement": "Latent Period*", "setting": "S. aureus (ATCC)", "result": 3, "unit": "h"}, {"measurement": "−2.5 Log10", "setting": "S. aureus (ATCC); time to −2.5 log10 cfu/ml", "result": 3.3, "unit": "hrs"}, {"measurement": "LD100", "setting": "Serracia sp.", "result": 6, "unit": "h"}, {"measurement": "Latent Period*", "setting": "Serracia sp.", "result": 4, "unit": "h"}, {"measurement": "−2.5 Log10", "setting": "Serracia sp.; time to −2.5 log10 cfu/ml", "result": 4.9, "unit": "hrs"}, {"measurement": "LD100", "setting": "Kiebsiella sp. #2", "result": 5, "unit": "h"}, {"measurement": "Latent Period*", "setting": "Kiebsiella sp. #2", "result": 2, "unit": "h"}, {"measurement": "−2.5 Log10", "setting": "Kiebsiella sp. #2; time to −2.5 log10 cfu/ml", "result": 4.1, "unit": "hrs"}]}
